Values quoted from earlier work as cited in patent US8759282B2, “Water-soluble films comprising low-viscosity alginates” (Uppsalagruppen Medical AB, priority 2005, dated 2014).
Like-named read-outs stand apart in the source and are kept apart here.

How the values were obtained:
[1] = not given; remark: listed apart in the source

| SMILES | Solubility in water | Solubility in water (listed as ibuprofen) | pKa [1] |
| --- | --- | --- | --- |
| CC(=O)Nc1ccc(O)cc1 [Substance 1, N-Acetyl-p-aminophenol] | only slightly soluble in water | – | – |
| CC(=O)Oc1ccccc1C(=O)O [Substance 2, 2-Acetoxibensoesyra] | 1 g/100 g of water | – | – |
| CC(C)Cc1ccc(C(C)C(=O)O)cc1 (stereo not drawn) [Substance 3, p-Isobutylhydratropic acid] | slightly soluble in water | only slightly soluble in water | – |
| CN1CCC[C@H]1c1cccnc1 [Substance 4, (S)-3-(1-Methyl-2-pyrrolidinyl)pyridine] | liquid miscible with water | – | 8.5 |
